# Measurements published in publication doi:10.1101/2025.11.04.686469, “Discovery of Host-Directed Small Molecules with Broad Anti-Leishmanial Efficacy” (bioRxiv, 2025).
# Tested on: intracellular L. donovani in WT and Lys K/O BMDMs
# Experiment: 197 target validation: Giemsa staining in BMDMs from wild-type and lysozyme knockout mice
# Type: cell-based, Leishmania donovani
# Details: WT vs Lys K/O BMDMs
# Excerpt: B6.129P2-Lyz2^tm1(cre)Ifo/J mice[23] (stock #004781, herein termed ‘Lys K/O’) were obtained from Jackson Laboratory. This strain has a nuclear-localized Cre recombinase inserted into the first coding ATG of the lysozyme 2 gene (Lyz2) which eliminates endogenous Lyz2 gene function. Wildtype C57BL6/J mice (stock #000664) were obtained as a control.
# Bone marrow derived macrophages (BMDMs) were isolated from both mice and cultured as described above in “Image-based Evaluation of Intracellular Anti-Leishmanial Activity”. BMDMs were seeded onto glass cover slips, infected with LV82 L. donovani at a multiplicity of infection of 1:10. Cells were washed to remove extracellular promastigotes and treated with compounds (197, amphotericin B) for a 72-hour incubation. BMDM cells were then washed with phosphate buffered saline, fixed with ice-cold methanol, and stained with Giemsa (5% v/v in water). The cover slips with stained cells are mounted onto glass slides and imaged on EVOS XL (100X, Thermo Fisher Scientific). Leishmania amastigotes per 100 macrophages were determined in a blinded manner.
structure (smiles),measurement,value
"C[C@@H]1[C@H](O)[C@@H](C)/C=C/C=C/C=C/C=C/C=C/C=C/C=C/[C@H](O[C@@H]2O[C@H](C)[C@@H](O)[C@H](N)[C@@H]2O)C[C@@H]2O[C@](O)(C[C@@H](O)C[C@@H](O)[C@H](O)CC[C@@H](O)C[C@@H](O)CC(=O)O[C@H]1C)C[C@H](O)[C@H]2C(=O)O [Amphotericin B, reference compound]",anti-leishmanial activity in Lys K/O BMDMs,retained its anti-leishmanial activity
